Test results taken from US20240051958A1, “DIACYLGLYCEROL KINASE (DGK) ALPHA INHIBITORS AND USES THEREOF” (priority 2022, published 2024).

What was measured:
DGKA = DGKA (Homo sapiens (Human), UniProt P23743); assay: DGKA Inhibition ADP-Glo Assay; type: biochemical; conditions: 40 μM ATP, 200 μM DLG in substrate working solution, 25° C., 60 min
Experimental: The DGKA inhibition reactions were performed using ADP-Glo assay. The reactions were carried out in 50 mM HEPES, 100 mM NaCl, 10 mM MgCl2, 1 mM CaCl2, 0.005% TritonX-100 and 1 mM DTT as working solution (pH=7.5). 30 nL DMSO solution of each test compound (Top concentration 0.4 μM with 10 point, 4-fold dilution series for each compound) were transferred to 384 well plate by Echo and 5 μL DGKA (SignalChem, D21-10BG) enzyme working solution at 2×final reaction concentration was added to each well. After incubated at 25° C. for 15 minutes, 5 μL substrate working solution contain 40 μM ATP (Promega, V915B) and 200 μM DLG (SignalChem, D430-59) were added to initiate reaction. After enzymatic reaction at 25° C. for 60 min, ADP Glo assay reagents (Promega, V9102) were added and luminescence was recorded using an EnVision following the instruction of manual. […] The IC50 value was calculated via a regression analysis of the inhibition rate.

Human Pan T cells = assay: IL-2 Release Detection Assay; type: cell-based; conditions: for Activation fold: Top activation/DMSO control; for Activation % at 100 nM: fitted curve at 100 nM/DMSO control*100%
Experimental: Add dilutions of compounds into the cells and incubate at 37° C. &5% CO2 for 24 hours. IL-2 in cell supernatant was detected by ELISA Kit (R&D, DY202). […] Top and Bottom: Plateaus in same units as Y. LogEC50: same log units as X. Activation fold: Top activation/DMSO control. Activation % at 100 nM: Activation of non-linear regression equation curve at the concentration of 100 nM/DMSO control*100%.

DGKA, sequence (P23743 whole entry): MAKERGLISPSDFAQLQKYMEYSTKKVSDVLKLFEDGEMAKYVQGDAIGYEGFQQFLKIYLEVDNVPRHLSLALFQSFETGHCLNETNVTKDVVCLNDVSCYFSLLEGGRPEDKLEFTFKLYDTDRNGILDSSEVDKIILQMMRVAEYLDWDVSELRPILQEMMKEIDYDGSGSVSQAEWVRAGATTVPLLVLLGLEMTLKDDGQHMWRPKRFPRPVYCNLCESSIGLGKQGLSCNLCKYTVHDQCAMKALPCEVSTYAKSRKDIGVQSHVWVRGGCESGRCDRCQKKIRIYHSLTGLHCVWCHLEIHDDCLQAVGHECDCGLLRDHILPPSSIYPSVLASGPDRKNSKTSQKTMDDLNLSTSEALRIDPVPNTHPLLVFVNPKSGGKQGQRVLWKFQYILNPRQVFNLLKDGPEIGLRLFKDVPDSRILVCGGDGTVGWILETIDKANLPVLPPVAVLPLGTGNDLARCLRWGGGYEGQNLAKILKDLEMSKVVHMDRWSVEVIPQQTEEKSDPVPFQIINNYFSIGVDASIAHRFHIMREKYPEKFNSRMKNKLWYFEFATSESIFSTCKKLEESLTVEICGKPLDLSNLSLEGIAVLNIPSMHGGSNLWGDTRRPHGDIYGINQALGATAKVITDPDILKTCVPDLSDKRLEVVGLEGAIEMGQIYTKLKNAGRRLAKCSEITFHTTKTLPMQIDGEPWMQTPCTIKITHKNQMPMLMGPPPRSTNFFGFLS

With `Cc1ccc2oc(C3CCN(c4cc(=O)n(C)c5ccc(Cl)cc45)CC3)nc2c1` [Example 2, 6-chloro-1-methyl-4-(4-(5-methylbenzo[d]oxazol-2-yl)piperidin-1-yl)quinolin-2(1H)-one] the IC50 (DGKA) was 0.47 nM, the Activation fold (Human Pan T cells) was 5.3 and the “Activation % at 100 nM” value (Human Pan T cells) was 234%.

With `Cc1ccc2oc(C3CCN(c4cc(=O)n(C)c5ccc(C#N)cc45)CC3)nc2c1` [Example 3, 1-methyl-4-(4-(5-methylbenzo[d]oxazol-2-yl)piperidin-1-yl)-2-oxo-1,2-dihydroquinoline-6-carbonitrile] the IC50 (DGKA) was 2.35 nM, the Activation fold (Human Pan T cells) was 7.8 and the “Activation % at 100 nM” value (Human Pan T cells) was 370%.

With `Cc1ccc2oc(C3CCN(c4nc(=O)n(C)c5ccc(Cl)cc45)CC3)nc2c1` [Example 4, 6-chloro-1-methyl-4-(4-(5-methylbenzo[d]oxazol-2-yl)piperidin-1-yl)quinazolin-2(1H)-one] the IC50 (DGKA) was 4.43 nM, the Activation fold (Human Pan T cells) was 3.5 and the “Activation % at 100 nM” value (Human Pan T cells) was 211%.

In the case of `Cc1ccc2oc(C3CCN(c4nc(=O)n(C)c5ccc(C#N)cc45)CC3)nc2c1` [Example 5, 1-methyl-4-(4-(5-methylbenzo[d]oxazol-2-yl)piperidin-1-yl)-2-oxo-1,2-dihydroquinazoline-6-carbonitrile], the IC50 (DGKA) is reported as 103 nM.

`Cc1ccc2oc(C3CCN(c4cc(=O)n(C)c5ccc(F)cc45)CC3)nc2c1` [Example 6, 6-fluoro-1-methyl-4-(4-(5-methylbenzo[d]oxazol-2-yl)piperidin-1-yl)quinolin-2(1H)-one] gave an IC50 (DGKA) of 1.23 nM.

Work on `Cc1ccc2oc(C3CCN(c4nc(=O)n(C)c5ccc(F)cc45)CC3)nc2c1` [Example 7, 6-fluoro-1-methyl-4-(4-(5-methylbenzo[d]oxazol-2-yl)piperidin-1-yl)quinazolin-2(1H)-one] yielded an IC50 (DGKA) of 16 nM.

`Cc1ccc2oc(N3[C@@H]4CC[C@H]3CN(c3c(C#N)c(=O)n(C)c5ccc(F)cc35)C4)nc2c1` [Example 8, 6-fluoro-1-methyl-4-((1R,5S)-8-(5-methylbenzo[d]oxazol-2-yl)-3,8-diazabicyclo[3.2.1]octan-3-yl)-2-oxo-1,2-dihydroquinoline-3-carbonitrile] showed an IC50 (DGKA) of 7.74 nM.

For `Cc1ccc2oc(C3CCN(c4c(C#N)c(=O)n(C)c5ccc(Cl)nc45)CC3)nc2c1` [Example 9, 6-chloro-1-methyl-4-(4-(5-methylbenzo[d]oxazol-2-yl)piperidin-1-yl)-2-oxo-1,2-dihydro-1,5-naphthyridine-3-carbonitrile], the IC50 (DGKA) was 2.04 nM, the Activation fold (Human Pan T cells) was 7.7 and the “Activation % at 100 nM” value (Human Pan T cells) was 206%.

With `Cc1ccc2oc(C3CCN(c4cc(=O)n(C)c5ccc(Cl)nc45)CC3)nc2c1` [Example 10, 6-chloro-1-methyl-4-(4-(5-methylbenzo[d]oxazol-2-yl)piperidin-1-yl)-1,5-naphthyridin-2(1H)-one] the IC50 (DGKA) was 0.36 nM, the Activation fold (Human Pan T cells) was 7.3 and the “Activation % at 100 nM” value (Human Pan T cells) was 143%.

For `Cn1c(=O)cc(N2CCC(c3nc4cc(F)ccc4o3)CC2)c2nc(Cl)ccc21` [Example 11, 6-chloro-4-(4-(5-fluorobenzo[d]oxazol-2-yl)piperidin-1-yl)-1-methyl-1,5-naphthyridin-2(1H)-one], the IC50 (DGKA) was 0.66 nM, the Activation fold (Human Pan T cells) was 6.1 and the “Activation % at 100 nM” value (Human Pan T cells) was 169%.

For `Cc1ccc2oc(C3CCN(c4nc(=O)n(C)c5ccc(Cl)nc45)CC3)nc2c1` [Example 13, 6-chloro-1-methyl-4-(4-(5-methylbenzo[d]oxazol-2-yl)piperidin-1-yl)pyrido[3,2-d]pyrimidin-2(1H)-one], the IC50 (DGKA) was 4.11 nM.

`Cc1ccc2oc(C3CCN(c4nc(=O)n(C)c5ccc(C#N)nc45)CC3)nc2c1` [Example 14, 1-methyl-4-(4-(5-methylbenzo[d]oxazol-2-yl)piperidin-1-yl)-2-oxo-1,2-dihydropyrido[3,2-d]pyrimidine-6-carbonitrile] showed an IC50 (DGKA) of 143 nM.

In the case of `COCCOc1cc2c(nc1Cl)c(N1CCC(c3nc4cc(C)ccc4o3)CC1)cc(=O)n2C` [Example 15, 6-chloro-7-(2-methoxyethoxy)-1-methyl-4-(4-(5-methylbenzo[d]oxazol-2-yl)piperidin-1-yl)-1,5-naphthyridin-2(1H)-one], the IC50 (DGKA) is reported as 0.19 nM, the Activation fold (Human Pan T cells) is reported as 6.5 and the “Activation % at 100 nM” value (Human Pan T cells) is reported as 214%.

In the case of `COCCOc1cc2c(nc1C#N)c(N1CCC(c3nc4cc(C)ccc4o3)CC1)cc(=O)n2C` [Example 16, 3-(2-methoxyethoxy)-5-methyl-8-(4-(5-methylbenzo[d]oxazol-2-yl)piperidin-1-yl)-6-oxo-5,6-dihydro-1,5-naphthyridine-2-carbonitrile], the IC50 (DGKA) is reported as 0.35 nM, the Activation fold (Human Pan T cells) is reported as 6.29 and the “Activation % at 100 nM” value (Human Pan T cells) is reported as 253%.

With `Cc1ccc2oc(C3CCN(c4cc(=O)n(C)c5cc(NCCO)c(Cl)nc45)CC3)nc2c1` [Example 17, 6-chloro-7-((2-hydroxyethyl)amino)-1-methyl-4-(4-(5-methylbenzo[d]oxazol-2-yl)piperidin-1-yl)-1,5-naphthyridin-2(1H)-one] the IC50 (DGKA) was 0.12 nM, the Activation fold (Human Pan T cells) was 8.2 and the “Activation % at 100 nM” value (Human Pan T cells) was 159%.

With `Cc1ccc2oc(C3CCN(c4cc(=O)n(C)c5cc(NCCO)c(C#N)nc45)CC3)nc2c1` [Example 18, 3-((2-hydroxyethyl)amino)-5-methyl-8-(4-(5-methylbenzo[d]oxazol-2-yl)piperidin-1-yl)-6-oxo-5,6-dihydro-1,5-naphthyridine-2-carbonitrile] the IC50 (DGKA) was 0.1 nM, the Activation fold (Human Pan T cells) was 6.9 and the “Activation % at 100 nM” value (Human Pan T cells) was 355%.

For `Cc1ccc2oc(C3CCN(c4cc(=O)n(C)c5cc(NCCO)cnc45)CC3)nc2c1` [Example 19, 7-((2-hydroxyethyl)amino)-1-methyl-4-(4-(5-methylbenzo[d]oxazol-2-yl)piperidin-1-yl)-1,5-naphthyridin-2(1H)-one], the IC50 (DGKA) was 2.36 nM.

Work on `Cc1ccc2oc(C3CCN(c4cc(=O)n(C)c5cc(OC6CCOC6)c(Cl)nc45)CC3)nc2c1` (stereo not drawn) [Example 20, 6-chloro-1-methyl-4-(4-(5-methylbenzo[d]oxazol-2-yl)piperidin-1-yl)-7-((tetrahydrofuran-3-yl)oxy)-1,5-naphthyridin-2(1H)-one] yielded an IC50 (DGKA) of 0.13 nM.

In the case of `Cc1ccc2oc(C3CCN(c4cc(=O)n(C)c5cc(OC6CCOC6)c(C#N)nc45)CC3)nc2c1` (stereo not drawn) [Example 21, 5-methyl-8-(4-(5-methylbenzo[d]oxazol-2-yl)piperidin-1-yl)-6-oxo-3-((tetrahydrofuran-3-yl)oxy)-5,6-dihydro-1,5-naphthyridine-2-carbonitrile], the IC50 (DGKA) is reported as 0.23 nM, the Activation fold (Human Pan T cells) is reported as 10.1 and the “Activation % at 100 nM” value (Human Pan T cells) is reported as 520%.

Molecule `Cc1ccc2oc(C3CCN(c4cc(=O)n(C)c5cc(OCCO)c(Cl)nc45)CC3)nc2c1` [Example 22, 6-chloro-7-(2-hydroxyethoxy)-1-methyl-4-(4-(5-methylbenzo[d]oxazol-2-yl)piperidin-1-yl)-1,5-naphthyridin-2(1H)-one] has an IC50 (DGKA) of 0.15 nM.

For `Cc1ccc2oc(C3CCN(c4cc(=O)n(C)c5cc(OCCCO)c(C#N)nc45)CC3)nc2c1` [Example 24, 3-(3-hydroxypropoxy)-5-methyl-8-(4-(5-methylbenzo[d]oxazol-2-yl)piperidin-1-yl)-6-oxo-5,6-dihydro-1,5-naphthyridine-2-carbonitrile], the IC50 (DGKA) was 0.31 nM, the Activation fold (Human Pan T cells) was 25.6 and the “Activation % at 100 nM” value (Human Pan T cells) was 679%.

Molecule `Cc1ccc2oc(C3CCN(c4cc(=O)n(C)c5cc(OC6CCOCC6)c(C#N)nc45)CC3)nc2c1` [Example 25, 5-methyl-8-(4-(5-methylbenzo[d]oxazol-2-yl)piperidin-1-yl)-6-oxo-3-((tetrahydro-2H-pyran-4-yl)oxy)-5,6-dihydro-1,5-naphthyridine-2-carbonitrile] has an IC50 (DGKA) of 5.29 nM.

Molecule `Cc1ccc2oc(C3CCN(c4cc(=O)n(C)c5cc(OCCN)c(C#N)nc45)CC3)nc2c1` [Example 26, 3-(2-aminoethoxy)-5-methyl-8-(4-(5-methylbenzo[d]oxazol-2-yl)piperidin-1-yl)-6-oxo-5,6-dihydro-1,5-naphthyridine-2-carbonitrile] has an IC50 (DGKA) of 3.34 nM.

`Cc1ccc2oc(C3CCN(c4cc(=O)n(C)c5cc(OC6CCNC6)c(C#N)nc45)CC3)nc2c1` (stereo not drawn) [Example 27, 5-methyl-8-(4-(5-methylbenzo[d]oxazol-2-yl)piperidin-1-yl)-6-oxo-3-(pyrrolidin-3-yloxy)-5,6-dihydro-1,5-naphthyridine-2-carbonitrile] was tested, and the IC50 (DGKA) was 13.6 nM.

With `Cc1ccc2oc(C3CCN(c4cc(=O)n(C)c5cc(O[C@H]6CCOC6)c(C#N)nc45)CC3)nc2c1` [Example 29, (S)-5-methyl-8-(4-(5-methylbenzo[d]oxazol-2-yl)piperidin-1-yl)-6-oxo-3-((tetrahydrofuran-3-yl)oxy)-5,6-dihydro-1,5-naphthyridine-2-carbonitrile] the IC50 (DGKA) was 0.7 nM, the Activation fold (Human Pan T cells) was 8.5 and the “Activation % at 100 nM” value (Human Pan T cells) was 292%.

For `Cc1ccc2oc(N3CC=C(c4cc(=O)n(C)c5cc(OCCO)c(C#N)nc45)CC3)nc2c1` [Example 30, 3-(2-hydroxyethoxy)-5-methyl-8-(1-(5-methylbenzo[d]oxazol-2-yl)-1,2,3,6-tetrahydropyridin-4-yl)-6-oxo-5,6-dihydro-1,5-naphthyridine-2-carbonitrile], the IC50 (DGKA) was 0.65 nM, the Activation fold (Human Pan T cells) was 11.0 and the “Activation % at 100 nM” value (Human Pan T cells) was 244%.
